From US20240076347A1, “METHODS FOR PREVENTING FUNGAL INFECTIONS” (Cidara Therapeutics, Inc., priority 2016, published 2024)
Numbered stars: 1 amine (or outer) side, 2 acyl side, 3 side chain; on linkers, the order of the positions; unused ones are H or OH. Bridge positions count the residues as written; N and C are the ends. Square brackets hold non-standard residues; d marks the D form. Peptide text beside a SMILES is read from it. * marks the point of attachment. ξ: configuration not given here. Orn(4R-OH,5R-OCH2CH2NMe3+) = C[N+](C)(C)CCO[C@@H](N[*:3])[C@H](O)C[C@H](N[*:1])C(=O)[*:2]; hTyr(3S-OH,4S-OH,3'-OSO3H) = N[C@H](C(=O)O)[C@H](O)[C@@H](O)c1ccc(O)c(OS(=O)(=O)O)c1; pTerphenylCO(4''-OnC5H11) = CCCCCOc1ccc(-c2ccc(-c3ccc(C(=O)*)cc3)cc2)cc1; Orn(4R-OH,5R-OH) = O=C([C@H](C[C@@H](O)[C@@H](O)N[*:3])N[*:1])[*:2]; hTyr(3S-OH,4S-OH) = N[C@H](C(=O)O)[C@H](O)[C@@H](O)c1ccc(O)cc1; Pro(3S-OH,4S-Me) = C[C@H]1CN[C@H](C(=O)O)[C@H]1O; X2 = CCCCCOc1ccc(-c2cc(-c3ccc(C(=O)*)cc3)no2)cc1; Gln(3R-OH) = NC(=O)C[C@@H](O)[C@H](N)C(=O)O; X1 = C[C@H]1CN([*:1])C(C(=O)[*:2])C1O; Hyp = O=C(O)[C@@H]1C[C@@H](O)CN1; ξT = CC(O)C(N)C(=O)O

Assays:
[1] = Monkey SC tolerability study; type: in vivo, cynomolgus monkeys
Description: Therefore, only local tolerability (and PK) of CD101 by SC administration required evaluation. […] Plasma concentrations were then quantified by liquid chromatography with tandem mass spectrometric detection (LC-MS/MS). Bioavailability from SC dosing was calculated by comparing the calculated area under the concentration-time profile (AUC) from SC against the AUC from IV administration of the same dose.
Therefore, a separate study was designed to evaluate the tolerability of a SC dose of CD101 as a highly concentrated solution (100 mg/mL; 30 mg/kg) in two cynomolgus monkeys. […] The drug reaches a maximum concentration within a few hours then remains nearly constant over the course of 10 days.

[2] = tested on: Aspergillus fumigatus (strain AF293); assay: Murine model of pulmonary aspergillosis (Example 9), survival and lung burden; type: in vivo; details: for Group Geometric mean / Log10 Group Geometric mean / Log10 reduction from vehicle control: terminal lung burden
Description: Animal Strain and Housing. Mice used in these studies were supplied by Charles River (Margate UK) and were specific pathogen free. The strain of mice used was ICR (also known as CD1 Mice) which is a well characterized outbred murine strain. Male mice were 11-15 g on receipt at our facility and allowed to acclimatize for at least seven days.
Immunosuppression. Mice were immunosuppressed on Day −4 with 150 mg/kg cyclophosphamide IP, and on Day −1 with 150 mg/kg cyclophosphamide IP and 175 mg/kg cortisone acetate SC. To prevent bacterial infection due to the immunosuppression mice were given 50 mg/kg/day ceftazidime.
Preparation of Organism and Infection. A. fumigatus strain AF293 inoculum was prepared from spore cultures grown on Sabouraud Dextrose agar (SAB) containing 50 μg/mL chloramphenicol (SABC) in vented tissue culture flasks. Following incubation for 7-10 days at 30° C., spore cultures were washed in sterile phosphate buffered saline (PBS) containing 0.05% Tween 80. Spore count was determined using a haemocytometer and spores were diluted in PBS to ˜6.9×10^6 CFU/mL. Inoculum concentration was confirmed by quantitative culture onto SABC agar. Neutropenic mice lungs were infected with 0.04 mL (0.02 mL/nares) of ˜6.9×10^6 CFU/mL (˜2.8×10^5 cfu/mouse) of A. fumigatus strain AF293 by intranasal (IN) instillation under temporary 2.5% isoflurane induced anesthesia.
Preparation of Test Articles. Micafungin was provided as a 50 mg vial (Lot 02323002, expiry 08/2017) and was prepared as per manufacturer instructions by adding 5 mL saline for injection (SFI) directly into the vial to make a 10 mg/mL stock solution. This solution was then diluted further in SFI to a working concentration of 0.2 mg/mL. The compound was administered IP at 10 mL/kg to achieve a 2 mg/kg dose. It was prepared fresh once and stored at 4° C. between doses.
Test article CD101 stock was prepared at 2 mg/mL in 10% DMSO/1% Tween 20 diluent. A clear non particulate solution was obtained following gentle mixing. The stock was kept at 4° C. until required. Study doses of 5 mg/kg (0.5 mg/mL) and 10 mg/kg (1 mg/mL) were prepared from the 2 mg/mL stock as required by diluting in 10% DMSO/1% Tween 20 diluent. The 2 mg/mL stock was used undiluted for the 20 mg/kg study dose. All doses were administered IP at 10 mL/kg.
Treatment. For this study, treatments were initiated on day five pre-infection according to treatment groups outlined in Table 15. A total of 78 mice (six mice per treatment group) were used in the study.
Endpoints. The primary endpoint for this study was survival within agreed ethical limits (>20% weight loss, severe hypothermia <34° C., inability to reach food or drink, severe hunching). Mice were monitored by daily weight measurements with observations as frequently as clinical condition required. Mice presenting with severe clinical deterioration were humanely euthanized using an overdose of pentobarbitone administered by IP injection following clinical assessment and the time of death was recorded. Animal carcasses were stored at −20° C. for assessment of burden. Ten days post infection all surviving animals were weighed and had their clinical condition assessed prior to being euthanized. Final survival numbers were recorded and analyzed as described below and carcasses frozen at −20° C. prior to further processing.
A secondary endpoint for the study was terminal lung tissue burden. Immediately following confirmation of death, carcasses were frozen at −20° C. prior to tissue dissection and processing. The frozen carcasses were thawed at room temperature and the lungs removed and placed into pre-weighed bead-beating tubes containing 2 mL of PBS and subjected to mechanical disruption. Organ homogenates were diluted further in PBS and quantitatively cultured for A. fumigatus onto SABC and incubated at 30° C. for 24-48 hours. […]

[3] = 5 mg/kg IP Day 0 (1 h post infection)
[4] = 2 mg/kg IP Day 0 (1 h post infection)

CCCCCOc1ccc(-c2ccc(-c3ccc(C(=O)N[C@H]4C[C@@H](O)[C@@H](OCC[N+](C)(C)C)NC(=O)C5C(O)[C@@H](C)CN5C(=O)[C@H]([C@@H](C)O)NC(=O)[C@H]([C@H](O)[C@@H](O)c5ccc(O)cc5)NC(=O)[C@@H]5C[C@@H](O)CN5C(=O)C(C(C)O)NC4=O)cc3)cc2)cc1 (stereo partly drawn) [CD101] ({pTerphenylCO(4''-OnC5H11)}-[Orn(4R-OH,5R-OCH2CH2NMe3+)][ξT][Hyp][hTyr(3S-OH,4S-OH)]T[X1]; lactam 1-C)
local (injection site) tolerability ([1]; single 30 mg/kg SC (100 mg/mL)): no sign of irritation or local (injection site) adverse toxicity | bodyweight and food consumption ([1]; single 30 mg/kg SC, 10 days follow-up): no effect on bodyweight or food consumption | Mean Survival [2, 3]: 67.8 h | Median Survival [2, 3]: 64.6 h | Mean Survival ([2]; 5 mg/kg IP Day −1): 72.1 h | Median Survival ([2]; 5 mg/kg IP Day −1): 67.6 h | Mean Survival ([2]; 5 mg/kg IP Day −3): 70.0 h | Median Survival ([2]; 5 mg/kg IP Day −3): 67.7 h | Mean Survival ([2]; 5 mg/kg IP Day −5): 65.3 h | Median Survival ([2]; 5 mg/kg IP Day −5): 65.3 h | Mean Survival ([2]; 10 mg/kg IP Day −1): 121.8 h | Median Survival ([2]; 10 mg/kg IP Day −1): 81.0 h | Mean Survival ([2]; 10 mg/kg IP Day −3): 76.9 h | Median Survival ([2]; 10 mg/kg IP Day −3): 73.4 h | Mean Survival ([2]; 10 mg/kg IP Day −5): 67.2 h | Median Survival ([2]; 10 mg/kg IP Day −5): 65.7 h | survival compared to micafungin one day before infection ([2]; 10 mg/kg and 20 mg/kg IP one day before infection): statistically greater survival | Mean Survival ([2]; 20 mg/kg IP Day −1): 155.6 h | Median Survival ([2]; 20 mg/kg IP Day −1): 72.3 h | Mean Survival ([2]; 20 mg/kg IP Day −3): 91.9 h | Median Survival ([2]; 20 mg/kg IP Day −3): 69.8 h | Mean Survival ([2]; 20 mg/kg IP Day −5): 75.5 h | Median Survival ([2]; 20 mg/kg IP Day −5): 69.8 h | Group Geometric mean ([2]; 5 mg/kg IP Day 0): 5.65 × 10^4 CFU/g | Log10 Group Geometric mean ([2]; 5 mg/kg IP Day 0): 4.75 CFU/g | Log10 reduction from vehicle control ([2]; 5 mg/kg IP Day 0): −0.98 CFU/g | Group Geometric mean ([2]; 5 mg/kg IP Day −1): 3.75 × 10^4 CFU/g | Log10 Group Geometric mean ([2]; 5 mg/kg IP Day −1): 4.57 CFU/g | Log10 reduction from vehicle control ([2]; 5 mg/kg IP Day −1): −0.80 CFU/g | Group Geometric mean ([2]; 5 mg/kg IP Day −3): 5.71 × 10^4 CFU/g | Log10 Group Geometric mean ([2]; 5 mg/kg IP Day −3): 4.76 CFU/g | Log10 reduction from vehicle control ([2]; 5 mg/kg IP Day −3): −0.98 CFU/g | Group Geometric mean ([2]; 5 mg/kg IP Day −5): 6.36 × 10^4 CFU/g | Log10 Group Geometric mean ([2]; 5 mg/kg IP Day −5): 4.80 CFU/g | Log10 reduction from vehicle control ([2]; 5 mg/kg IP Day −5): −1.03 CFU/g | Group Geometric mean ([2]; 10 mg/kg IP Day −1): 5.17 × 10^3 CFU/g | Log10 Group Geometric mean ([2]; 10 mg/kg IP Day −1): 3.71 CFU/g | Log10 reduction from vehicle control ([2]; 10 mg/kg IP Day −1): 0.06 CFU/g | Group Geometric mean ([2]; 10 mg/kg IP Day −3): 7.34 × 10^3 CFU/g | Log10 Group Geometric mean ([2]; 10 mg/kg IP Day −3): 3.87 CFU/g | Log10 reduction from vehicle control ([2]; 10 mg/kg IP Day −3): −0.09 CFU/g | Group Geometric mean ([2]; 10 mg/kg IP Day −5): 3.40 × 10^4 CFU/g | Log10 Group Geometric mean ([2]; 10 mg/kg IP Day −5): 4.53 CFU/g | Log10 reduction from vehicle control ([2]; 10 mg/kg IP Day −5): −0.76 CFU/g | Group Geometric mean ([2]; 20 mg/kg IP Day −1): 1.12 × 10^4 CFU/g | Log10 Group Geometric mean ([2]; 20 mg/kg IP Day −1): 4.05 CFU/g | Log10 reduction from vehicle control ([2]; 20 mg/kg IP Day −1): −0.28 CFU/g | Group Geometric mean ([2]; 20 mg/kg IP Day −3): 4.92 × 10^4 CFU/g | Log10 Group Geometric mean ([2]; 20 mg/kg IP Day −3): 4.69 CFU/g | Log10 reduction from vehicle control ([2]; 20 mg/kg IP Day −3): −0.92 CFU/g | Group Geometric mean ([2]; 20 mg/kg IP Day −5): 8.35 × 10^3 CFU/g | Log10 Group Geometric mean ([2]; 20 mg/kg IP Day −5): 3.92 CFU/g | Log10 reduction from vehicle control ([2]; 20 mg/kg IP Day −5): −0.15 CFU/g

CCCCCOc1ccc(-c2cc(-c3ccc(C(=O)N[C@H]4C[C@@H](O)[C@@H](O)NC(=O)[C@@H]5[C@@H](O)[C@@H](C)CN5C(=O)[C@H]([C@H](O)CC(N)=O)NC(=O)[C@H]([C@H](O)[C@@H](O)c5ccc(O)c(OS(=O)(=O)O)c5)NC(=O)[C@@H]5C[C@@H](O)CN5C(=O)[C@H]([C@@H](C)O)NC4=O)cc3)no2)cc1 [Micafungin, micafungin, reference compound] (X2-[Orn(4R-OH,5R-OH)]T[Hyp][hTyr(3S-OH,4S-OH,3'-OSO3H)][Gln(3R-OH)][Pro(3S-OH,4S-Me)]; lactam 1-C)
Mean Survival [2, 4]: 75.3 h | Median Survival [2, 4]: 73.3 h | Mean Survival ([2]; 2 mg/kg IP Day −1): 64.7 h | Median Survival ([2]; 2 mg/kg IP Day −1): 64.7 h | Group Geometric mean ([2]; 2 mg/kg IP Day 0): 1.08 × 10^4 CFU/g | Log10 Group Geometric mean ([2]; 2 mg/kg IP Day 0): 4.03 CFU/g | Log10 reduction from vehicle control ([2]; 2 mg/kg IP Day 0): −0.26 CFU/g | Group Geometric mean ([2]; 2 mg/kg IP Day −1): 4.34 × 10^4 CFU/g | Log10 Group Geometric mean ([2]; 2 mg/kg IP Day −1): 4.64 CFU/g | Log10 reduction from vehicle control ([2]; 2 mg/kg IP Day −1): −0.86 CFU/g
